# Tested on: PGY-sRNA-26
# Assay: In vivo delivery study of lipid-nucleic acid mixture (oral gavage, RT-qPCR of PGY-sRNA-26 in tissues)
# Design: species or system mouse
# Conditions: C57BL/6 mice, gavage, 100 μg lipid: 10 nmol PGY-sRNA-26, 12 hours; for oral delivery of single-stranded sRNA nucleic acids into mouse intestinal tissue: intestine; for delivery efficacy over each tissue and blood tested (broad-spectrum delivery): all tissues and blood tested
# Summary of the method: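 C57BL/6 male mice (~6 weeks, 20-24 g), fasted 12 h, were gavaged with 10 nmol 3′-methylated PGY-sRNA-26 mixed with 100 μg lipid (heated 90° C. 15 min), versus saline or free sRNA (n=4 each). After 12 h, blood and tissues were Trizol-extracted; sRNA quantified by stem-loop RT-qPCR relative to U6.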
SMILES,oral delivery of single-stranded sRNA nucleic acids into mouse blood,oral delivery of single-stranded sRNA nucleic acids into mouse brain tissue,oral delivery of single-stranded sRNA nucleic acids into mouse femur,oral delivery of single-stranded sRNA nucleic acids into mouse heart tissue,oral delivery of single-stranded sRNA nucleic acids into mouse intestinal tissue,oral delivery of single-stranded sRNA nucleic acids into mouse liver tissue,oral delivery of single-stranded sRNA nucleic acids into mouse lung tissue,oral delivery of single-stranded sRNA nucleic acids into mouse spleen tissue,oral delivery of single-stranded sRNA nucleic acids into mouse stomach tissue,delivery efficacy over each tissue and blood tested (broad-spectrum delivery),oral delivery of single-stranded sRNA nucleic acids into mouse kidney tissue
C[C@H](CCC(=O)O)[C@H]1CC[C@H]2[C@@H]3[C@H](O)C[C@@H]4C[C@H](O)CC[C@]4(C)[C@H]3CC[C@]12C [Lipid 580],can effectively orally deliver,can effectively orally deliver,can effectively orally deliver,can effectively orally deliver,can effectively orally deliver,can effectively orally deliver,can effectively orally deliver,can effectively orally deliver,can effectively orally deliver,,
C[C@H](CCC(=O)O)[C@H]1CC[C@H]2[C@@H]3CC[C@@H]4C[C@H](O)CC[C@]4(C)[C@H]3C[C@H](O)[C@]12C [Lipid 581],can effectively orally deliver,can effectively orally deliver,can effectively orally deliver,can effectively orally deliver,can effectively orally deliver,can effectively orally deliver,can effectively orally deliver,can effectively orally deliver,can effectively orally deliver,exhibited the best delivery efficacy,can effectively orally deliver
CC(=O)OCC(=O)[C@@]1(O)CC[C@H]2[C@@H]3CCC4=CC(=O)CC[C@]4(C)[C@H]3[C@@H](O)C[C@@]21C [Lipid 582],can effectively orally deliver,can effectively orally deliver,can effectively orally deliver,can effectively orally deliver,can effectively orally deliver,can effectively orally deliver,can effectively orally deliver,can effectively orally deliver,can effectively orally deliver,exhibited the best delivery efficacy,can effectively orally deliver
"CC(C)CCC[C@@H](C)[C@H]1CC[C@H]2[C@@H]3CC[C@H]4C[C@@H](O)CC[C@]4(C)[C@H]3CC[C@]12C [Lipid 583, 5α-cholestan-3β-ol (3S,5S,8R,9S,10S,13R,14S,17R)-10,13-dimethyl-17-[(2R)-6-methylheptan-2-yl]-2,3,4,5,6,7,8,9,11,12,14,15,16,17-tetradecahydro-1H-cyclopenta[a]phenanthren-3-ol]",can effectively orally deliver,can effectively orally deliver,can effectively orally deliver,can effectively orally deliver,can effectively orally deliver,can effectively orally deliver,can effectively orally deliver,,can effectively orally deliver,,
CCCCCCCCCCCCCCCCCC(=O)O[C@H]1CC[C@@]2(C)C(=CC[C@H]3[C@@H]4CC[C@H]([C@H](C)CCCC(C)C)[C@@]4(C)CC[C@@H]32)C1 [Lipid 584],can effectively orally deliver,can effectively orally deliver,can effectively orally deliver,can effectively orally deliver,can effectively orally deliver,can effectively orally deliver,can effectively orally deliver,can effectively orally deliver,can effectively orally deliver,,
CC(=O)OCC(=O)[C@@]1(O)CC[C@H]2[C@@H]3CCC4=CC(=O)CC[C@]4(C)[C@H]3C(=O)C[C@@]21C [Lipid 585],can effectively orally deliver,can effectively orally deliver,can effectively orally deliver,can effectively orally deliver,can effectively orally deliver,can effectively orally deliver,can effectively orally deliver,can effectively orally deliver,can effectively orally deliver,,can effectively orally deliver

# — patent US20240293551A1, “USE OF ST-TYPE LIPID COMPOUNDS IN PREPARATION OF NUCLEIC ACID DELIVERY REAGENT AND RELATED PRODUCT” (INSTITUTE OF BASIC MEDICAL SCIENCES CHINESE ACADEMY OF …, priority 2021, published 2024)
